According to patent US20050014766A1, “Use of n-(indolecarbonyl-)piperazine derivatives” (priority 2002, published 2005):

Assays:
mice [1] = assay: four plate test (model of acute stress anxiety); assay type: in vivo, mouse; details: 5 minute test period
Description: A typical model of acute stress anxiety is the “four plate test” as described by C. Aron et al., Neuropharmacology 1971, 10: 459-469.
The device consists of a small box whose base is composed of four metal plates. Each time the mouse moves from one plate to the next, it receives a short current pulse on the foot, thus reducing the investigative behaviour. The number of changes from one plate to the next which occur with punishment (i.e. the number of current pulses accepted by the animal) is recorded over a test period of 5 minutes.

mice [2] = assay: light-dark choice test (model of generalised anxiety disorders); assay type: in vivo, mouse; details: period of 5 minutes
Procedure: A typical model of generalised anxiety disorders is the “light-dark choice test” as described by J. N. Crawly, Pharmacol. Biochem Behav. 1981, 15: 695-699.
The corresponding device for the selection of brightness or darkness consists of two boxes connected to one another, one box being darkened and the other being brightly illuminated. A mouse is placed in one of the boxes, and it is measured how much time the mouse spends in the illuminated box over a period of 5 minutes. Normal mice only go into the illuminated compartment rarely and spend almost all the time in the dark compartment.

[3] = system: recombinant in-bred mice (crossing of the strains C57ML/6J and DBA/2J); assay: pre-pulse inhibition in recombinant in-bred mice with inherently poor pre-pulse inhibition; assay type: in vivo; details: recombinant mouse strain with poor pre-pulse inhibition
Description: A typical animal model of schizotypical personality disorders and the prevention of schizophrenia in first-degree relatives is restricted pre-pulse inhibition. Pre-pulse inhibition is a non-species-specific phenomenon in which the normal reflex reactions to discrete sensory events are reduced if slight prior stimulation has been carried out in advance; pre-pulse inhibition can be used to assess sensomotory gating processes. In patients with schizotypical personality disorders and their first-degree relatives (in whom there is a high risk of the development of schizotypical personality disorders), the normal function of pre-pulse inhibition is disturbed (Braff, D. et al., Psychophysiology, 1978; 15:339-343; Braff, D., Arch Gen Psychiatry, 1992; 49:206-215; Bolino, F. et al., Biol Psychiatry, 1994; 36:670-679). Recombinant in-bred mice having an inherently poor pre-pulse inhibition (crossing of the strains C57ML/6J and DBA/2J) represent a corresponding animal model (McCaughran, J. A. Jr. et al., Psychopharmacology 1997; 134:131-140; McCaughran, J. A. Jr. et al., Behav. Genetics, 1999; 29:21-30.).

mice [4] = assay: hyperlocomotory activity induced by dizocilpine; assay type: in vivo, mouse
Description: Animal models of treatment-resistant schizophrenia and psychosis in tardive dyskinesia are so-called stimulant-induced psychoses (Ellison, G., Brain Res. Rev. 1994; 137:193-197). Chronic misuse of ‘dopamine agonists’, such as, for example, amphetamine or cocaine, or antagonists of N-methyl-D-aspartate (NMDA), such as, for example, ketamine, phencyclidine and dizocilpine, causes a syndrome of behavioural effects which has many features in common with the symptom complex of schizophrenia, i.e. these substances induce schizophrenia-like symptoms in healthy people and accelerate psychotic reactions in stabilised schizophrenic patients (Luby, E. D. et al., Am. Med. Assoc. Arch. Neurol. Psychiatry, 1959; 119:61-67; Lahti, A. C. et al., Neuropsychopharmacology, 1995; 13:9-19; Malhotra, A. K. et al., Neuropsychopharmacology, 1996; 14:301-307; Adler, C. M. et al., Biol. Psychiatry 1998; 43:811-816). In rodents, these stimulants cause extreme hyperlocomotory activity (Schaefer, G. J. et al., Neuropharmacology 1984; 23:909-914; Millan, M. J. et al., Eur. J. Neurosci. 1999; 11:419-432; O'Neill, M. F. et al., Psychopharmacology, 1999, 145:237-250).

mice [5] = assay: isolation-induced fighting behaviour in mice (aggression model); assay type: in vivo, mouse
Description: A typical animal model of aggression is the isolation-induced fighting behaviour in mice (Paivarinta, P., Pharmacol. Biochem. Behav., 1992; 42: 35-39; Haller, J. et al., Psychopharmacology, 1996; 126: 345-350). […] The number of bites or bite attacks can be used as a measure of the aggression.

monkeys = assay: DMTS method (delayed matching to sample) in monkeys; assay type: in vivo, monkey
Description: Of the learning models, the DMTS method (DMTS=delayed matching to sample) in monkeys (Buccafusco, J. J. et al., Psychopharmacology, 1995; 120: 256-266; Buccafusco, J. J. et al., Drug Dev. Res., 1996; 38: 196-203; Prendergast, M. A. et al., Pharmacol. Biochem. Behav., 1997; 56: 81-87) is potentially of interest since the various aspects of learning and memory can be measured in this method. An experiment begins with the illumination of a sample key provided with one of three coloured discs. The monkeys are taught to press the illuminated sample key in order to initiate the experiment. After the delay interval, the two keys available for selection illuminate, but not the sample key. One of the two keys available for selection is offered with the colour that the sample key had before the delay interval, while the other (wrong) key available for selection has one of the two other colours. If the monkey makes the correct assignment (i.e. if it presses the key available for selection which has the same colour as the stimulus key), the response is rewarded. […] Finally, all stimulus equalisation measures were assigned to the delay duration. […]

rats = assay: T-labyrinth learning and memory model in rats; assay type: in vivo, rat; details: after denial of food
Description: In a learning and memory model in rats, the T-labyrinth method is used, in which rats, after denial of food, have to learn to find a reward in the arm of the labyrinth which is opposite the arm in which the reward was offered in the previous experiment (Moran, P. et al., Brain Res. 1992; 569:156-158).

Question: `N#Cc1c[nH]c2c(C(=O)N3CCN(CCc4ccc(F)cc4)CC3)cccc12` [(3-cyano-1H-indol-7-yl)[4-(4-fluorophenethyl)piperazin-1-yl]methanone] was tested. Which “number of changes with punishment” value (mice [1]) did it give?
Answer: increases the number of changes with punishment

Question: And the “time spent by the mice in the illuminated compartment” value (mice [2])?
Answer: increases the time spent by the mice in the illuminated compartment

Question: And the “deficits in pre-pulse inhibition” value [3]?
Answer: significantly reduces the deficits in pre-pulse inhibition

Question: What about the “hyperlocomotory activity induced by dizocilpine” value (mice [4]) of the same molecule?
Answer: significantly reduces hyperlocomotory activity

Question: What about the isolation-induced fighting behaviour (mice [5]) of the same molecule?
Answer: reduces the isolation-induced fighting behaviour

Question: And the “DMTS hit rate and general aspects of working memory” value (monkeys)?
Answer: clearly improves the DMTS hit rate

Question: What about the “learning and memory in the T-labyrinth” value (rats) of the same molecule?
Answer: has memory-promoting effects in the learning process and facilitates better and faster learning with a shorter performance time
